Measurements: patent US12612412B2, “Antiviral heterocyclic compounds” (Enanta Pharmaceuticals, Inc., priority 2021, dated 2026)

Columns and labels:
[1] = tested on: genotype A, "Long" strain RSV; assay: RSV-A assay (CPE protection in Hep-2 cells, ATPlite readout); type: cell-based, Human respiratory syncytial virus (HRSV); conditions: human respiratory syncytial virus, genotype A “Long” strain RSV, MOI 0.1, CPE protection, read-out: Human RSV-A (“Long”)
Method in brief: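 Hep-2 cells (8,000/well) were treated with 2-fold serial compound dilutions in duplicate and infected with RSV at MOI 0.1. After 5 days, protection from cytopathic effect was measured as cell viability by ATPlite luminescence, and EC50 values were derived.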

[2] = tested on: HMPV clinical isolate TN/1501/A1; assay: HMPV antiviral assay Method-B (clinical isolate TN/1501/A1 in LLC-MK2 cells, ATP-Lite readout); type: cell-based, Human metapneumovirus (HMPV); conditions: human metapneumovirus, LLC-MK2, 144 h, hMPV WT1501 (clinical isolate TN/1501/A1), 6 days
Description: In vitro HMPV antiviral activity was evaluated using the clinical isolate TN/1501/A1 and LLC-MK2 cells (ATCC #CCL-7), an immortalized kidney epithelial cell line from Macaca mulatta. Compounds were resuspended in dimethyl sulfoxide (DMSO) at 10 mM and added to a 384-well source plate. The compounds were diluted and transferred onto 384-well assay plates using the Echo-650 automated liquid handling system (Beckman Coulter, Indiana). The test compounds were assessed in duplicate at a top concentration of 10 μM followed by 3-fold serial dilutions to give a total of 10 concentration points. DMSO control wells were also included on the assay plates and were either infected or not, acting as positive and negative controls. TN/1501/A1 virus infections were performed in-suspension with LLC-MK2 cells. The cells were washed twice with PBS and removed from the cell-culture flask with 0.25% trypsin-EDTA (Thermo Fisher Scientific, MA). The trypsin-EDTA was inactivated by resuspending in 2% fetal bovine serum (FBS) and OptiMEM (ThermoFisher Scientific, MA) containing 1% penicillin-streptomycin. Cells were pelleted by centrifuging for 5 minutes at 800 rpm, the supernatant was removed, and cells were suspended in PBS plus 100 μg/mL CaCl2). This step was performed twice. Cells were then resuspended in serum-free (SF)-OptiMEM containing 4 μg/mL TPCK-Trypsin (Sigma Aldrich, MO), 1% penicillin-streptomycin (ThermoFisher Scientific, MA) and 100 μg/mL CaCl2). Cells were counted and seeded at a density of 5,000 cells/well, 12.5 μL/well. Virus infections were done at a multiplicity of infection (MOI) of 0.014 with 12.5 μL added per well. SF-OptiMEM, 12.5 μL/well, was added to the appropriate wells to serve as a virus-free negative control for the assay. The final concentration of TPCK-trypsin was 2 μg/mL. Plates were incubated at 37° C., 5% CO2 for 6 days. After 6 days incubation, 12.5 μL of ATP-Lite (PerkinElmer, MA) was added to each well and the raw luminescence values were determined using the Envision 2104 (Perkin Elmer, MA). The average of the raw luminescence values for the cells and virus only positive control wells was subtracted from all conditions tested and the percent cell health was determined by dividing these values by the average of the cells only negative control wells. EC50 values were then calculated by non-linear regression using a four-parameter curve logistic equation. The curve fit model employed was XLFit Dose Response One Site Model 200: y=(A+(B/(1+((x/C)^D)))), where A is the minimum y value, B is the maximum y value, C is the log EC50 value, and D is the slope factor. […] EC50 ranges are as follows: A<0.5 μM; B>0.5 μM.

| EC50 [1] [µM] | EC50 [2] [µM] | Structure (SMILES) |
| --- | --- | --- |
| < 0.2 | > 0.5 | Cc1nn(-c2ccccc2)cc1C(=O)NC[C@](O)(c1cc2c(c(-c3ccc(F)cc3)n1)OC[C@]2(C)C(N)=O)C1CC1 [Example 486] |
| < 0.2 | > 0.5 | Cc1nc2c(Cl)cc(C(=O)NC[C@](O)(c3cc4c(c(-c5ccc(F)cc5)n3)OC[C@]4(C)C(N)=O)C(F)(F)F)cc2[nH]1 [Example 487] |
| < 0.2 | > 0.5 | C[C@]1(C(N)=O)COc2c1cc([C@@](O)(CNC(=O)c1ccnc3cc[nH]c13)C(F)(F)F)nc2-c1ccc(F)cc1 [Example 488] |
| > 0.2 | > 0.5 | C[C@]1(C(N)=O)COc2c1cc([C@@](O)(CNC(=O)c1ccnc3nccn13)C(F)(F)F)nc2-c1ccc(F)cc1 [Example 489] |
| < 0.2 | < 0.5 | C[C@]1(C(N)=O)COc2c1cc([C@@](O)(CNC(=O)c1cc(OC3CC3)n3nc(C4CC4)cc3c1)C1CC1)nc2-c1ccc(F)c(Cl)c1 [Example 491] |
| < 0.2 | < 0.5 | Cc1cnc2c(OC(F)F)cc(C(=O)NC[C@](O)(c3cc4c(c(-c5ccc(F)cc5)n3)OC[C@]4(C)C(N)=O)C(F)(F)F)cc2c1 [Example 493] |
| < 0.2 | < 0.5 | Cc1cnc2c(OC(F)F)cc(C(=O)NC[C@](O)(c3cc4c(c(-c5ccc(F)c(Cl)c5)n3)OC[C@]4(C)C(N)=O)C(F)(F)F)cc2c1 [Example 494] |
| < 0.2 | < 0.5 | Cc1cnc2c(OC(F)F)cc(C(=O)NC[C@](O)(c3cc4c(c(-c5ccc(F)cc5)n3)OC[C@]4(C)C(N)=O)C3CC3)cc2c1 [Example 495] |
| < 0.2 | < 0.5 | Cc1cnc2c(OC(F)F)cc(C(=O)NC[C@](O)(c3cc4c(c(-c5ccc(F)c(Cl)c5)n3)OC[C@]4(C)C(N)=O)C3CC3)cc2c1 [Example 496] |
| < 0.2 | < 0.5 | Cc1cnc2c(OCC(F)F)cc(C(=O)NC[C@](O)(c3cc4c(c(-c5ccc(F)c(Cl)c5)n3)OC[C@]4(C)C(N)=O)C(F)(F)F)cc2c1 [Example 497] |
| < 0.2 | < 0.5 | Cc1cnc2c(OCC(F)F)cc(C(=O)NC[C@](O)(c3cc4c(c(-c5ccc(F)cc5)n3)OC[C@]4(C)C(N)=O)C3CC3)cc2c1 [Example 498] |
| < 0.2 | < 0.5 | Cc1cnc2c(OCC(F)F)cc(C(=O)NC[C@](O)(c3cc4c(c(-c5ccc(F)c(Cl)c5)n3)OC[C@]4(C)C(N)=O)C3CC3)cc2c1 [Example 499] |
| < 0.2 | < 0.5 | Cc1nc2c(Cl)cc(C(=O)NC[C@](O)(c3cc4c(c(-c5ccc(F)c(Cl)c5)n3)OC[C@]4(C)C(N)=O)C3CC3)cc2cc1Cl [Example 500] |
| < 0.2 | > 0.5 | Cc1cnc2c(OC(F)(F)F)cc(C(=O)NC[C@](O)(c3cc4c(c(-c5ccc(F)cc5)n3)OC[C@]4(C)C(N)=O)C(F)(F)F)cc2c1 [Example 501] |
| < 0.2 | < 0.5 | Cc1cnc2c(OC(F)(F)F)cc(C(=O)NC[C@](O)(c3cc4c(c(-c5ccc(F)cc5)n3)OC[C@]4(C)C(N)=O)C3CC3)cc2c1 [Example 502] |
| < 0.2 | < 0.5 | Cc1cnc2c(OC(F)(F)F)cc(C(=O)NC[C@](O)(c3cc4c(c(-c5ccc(F)c(Cl)c5)n3)OC[C@]4(C)C(N)=O)C3CC3)cc2c1 [Example 503] |
| < 0.2 | < 0.5 | C[C@]1(C(N)=O)COc2c1cc([C@@](O)(CNC(=O)c1cc(OC3CC3)n3nc(C4CC4)cc3c1)C(F)(F)F)nc2-c1ccc2c(c1)OC(F)(F)O2 [Example 504] |
| < 0.2 | < 0.5 | COc1cc(C(=O)NC[C@](O)(c2cc3c(c(-c4ccc5c(c4)OC(F)(F)O5)n2)OC[C@]3(C)C(N)=O)C(F)(F)F)cc2sc(C)nc12 [Example 505] |
| < 0.2 | < 0.5 | COc1cc(C(=O)NC[C@](O)(c2cc3c(c(-c4ccc(F)c(F)c4F)n2)OC[C@]3(C)C(N)=O)C(F)(F)F)cc2cc(Cl)c(C)nc12 [Example 506] |

| EC50 [1] [µM] | EC50 [2] [µM] | Structure (SMILES) |
| --- | --- | --- |
| < 0.2 | < 0.5 | COc1cc(C(=O)NC[C@](O)(c2cc3c(c(-c4ccc(F)c(F)c4F)n2)OC[C@]3(C)C(N)=O)C(F)(F)F)cc2cc(C3CC3)nn12 [Example 507] |
| < 0.2 | < 0.5 | C[C@]1(C(N)=O)COc2c1cc([C@@](O)(CNC(=O)c1cc(OC3CC3)n3nc(C4CC4)cc3c1)C(F)(F)F)nc2-c1ccc(F)c(F)c1F [Example 508] |
| – | < 0.5 | COc1cc(C(=O)NC[C@](O)(c2cc3c(c(-c4ccc(F)c(Br)c4F)n2)OC[C@]3(C)C(N)=O)C2CC2)cc2cc(Cl)c(C)nc12 [Example 804] |
| – | > 0.5 | COc1cc(C(=O)NC[C@](O)(c2nc(-c3ccc4c(c3)OC(F)(F)O4)c3c(c2F)[C@](C)(C(N)=O)CO3)C2CC2)cc2cn(C3CC3)nc12 [Example 863] |
| – | > 0.5 | C[C@@]1(C(N)=O)COc2c(-c3ccc4c(c3)OC(F)(F)O4)nc([C@@](O)(CNC(=O)c3cc(Cl)c4nn(C5CC5)cc4c3)C3CC3)c(F)c21 [Example 864] |
| – | > 0.5 | COc1cc(C(=O)NC[C@](O)(c2nc(-c3ccc4c(c3)OC(F)(F)O4)c3c(c2F)[C@](C)(C(N)=O)CO3)C2CC2)cc2cn(C3(F)CC3)nc12 [Example 865] |
| – | > 0.5 | COc1cc(C(=O)NC[C@](O)(c2nc(-c3ccc4c(c3)OC(F)(F)O4)c3c(c2F)[C@](C)(C(N)=O)CO3)C2CC2)cc2cn(C(F)F)nc12 [Example 866] |
| – | > 0.5 | COc1cc(C(=O)NC[C@](O)(c2nc(-c3ccc4c(c3)OC(F)(F)O4)c3c(c2F)[C@](C)(C(N)=O)CO3)C2CC2)cc2cc(Cl)c(C)nc12 [Example 867] |
| – | > 0.5 | COc1cc(C(=O)NC[C@](O)(c2nc(-c3cc(Cl)c(F)cc3F)c3c(c2F)[C@](C)(C(N)=O)CO3)C2CC2)cc2cn(C3CC3)nc12 [Example 868] |
| – | < 0.5 | COc1cc(C(=O)NC[C@](O)(c2nc(-c3ccc4c(c3)OC(F)(F)O4)c3c(c2F)[C@@](C)(C(N)=O)CO3)C2CC2)cc2cc(Br)cnc12 [Example 869] |
| – | > 0.5 | COc1cc(C(=O)NC[C@](O)(c2nc(-c3ccc4c(c3)OC(F)(F)O4)c3c(c2F)[C@](C)(C(N)=O)CO3)C2CC2)cc2cc(Br)cnc12 [Example 870] |
| – | < 0.5 | COc1cc(C(=O)NC[C@@](O)(c2cc3c(c(-c4cc(Br)c(F)cc4F)n2)OC[C@]3(C)C(N)=O)C(F)(F)F)cc2cn(C3CC3)nc12 [Example 957] |
| – | < 0.5 | COc1cc(C(=O)NC[C@](O)(c2cc3c(c(-c4cc(Br)c(F)cc4F)n2)OC[C@]3(C)C(N)=O)C(F)(F)F)cc2cn(C3CC3)nc12 [Example 958] |
| – | > 0.5 | COc1cc(C(=O)NC[C@@](O)(c2cc3c(c(-c4cccc(Br)c4F)n2)OC[C@]3(C)C(N)=O)C(F)(F)F)cc2cn(C3CC3)nc12 [Example 959] |
| – | < 0.5 | COc1cc(C(=O)NC[C@](O)(c2cc3c(c(-c4cccc(Br)c4F)n2)OC[C@]3(C)C(N)=O)C(F)(F)F)cc2cn(C3CC3)nc12 [Example 960] |
| – | < 0.5 | COc1cc(F)c(-c2nc([C@@](O)(CNC(=O)c3cc(OC)c4nn(C5CC5)cc4c3)C(F)(F)F)cc3c2OC[C@]3(C)C(N)=O)c(F)c1 [Example 962] |
| – | < 0.5 | COc1cc(C(=O)NC[C@](O)(c2cc3c(c(-c4c(F)ccc(Cl)c4F)n2)OC[C@]3(C)C(N)=O)C(F)(F)F)cc2cn(C3CC3)nc12 [Example 963] |
| – | < 0.5 | COc1cc(C(=O)NC[C@](O)(c2cc3c(c(-c4c(F)ccc(F)c4F)n2)OC[C@]3(C)C(N)=O)C(F)(F)F)cc2cn(C3CC3)nc12 [Example 964] |
